The subject of data set [1] is Human CD34+ cord blood (CB) cells. The experiment in a line: CD34+ activity assessment (7-day expansion of pre-expanded CD34+ cells, flow cytometry). It counts as cell-based. To be noted: concentration at which compound/vehicle ratio of CD34+ cell number is >= 1.5; 7 days, with 35 nM UM0128171; Table 1. The protocol: Human CD34+ cord blood (CB) cells were isolated from fresh units using RosetteSep™ 0034 pre-enrichment cocktail followed by CD34 positive selection using EasySep Kit™ (StemCell Technologies). The cells were then pre-expanded in bulk, by culturing at 37° C. for 6 days in HSC expansion media consisting of StemSpan ACF (StemCell Technologies) supplemented with 100 ng/mL Stem Cell Factor (SCF, Shenandoah), 100 ng/mL FMS-like Tyrosine Kinase 3 Ligand (FLT3L, Shenandoah), 50 ng/mL Thrombopoietin (TPO, Shenandoah), 2 mM GlutaMAX™ (Invitrogen), 10 μg/mL low density lipoproteins (LDL, StemCell Technologies), 10 μg/mL Ciprofloxacin and 35 nM UM0128171. […] Following the pre-expansion, cells were harvested, aliquoted and frozen until use.
For each activity assessment, CD34+ pre-expanded cells (approximately 2000 per well in a 384-well plate) were cultured in HSC expansion media, in the presence of 35 nM UM0128171. Compounds were serially diluted (1/2) in DMSO (10 dilutions per compound) and added to the cells in order to achieve a 1/1000 final dilution. StemRegenin1 (SR1) and/or Compound 1001 were included in all experiments as controls to monitor assay performance. The plate was incubated at 37° C. for 7 days in static conditions (i.e. no shaking and no addition of media). Flow cytometry analysis was performed at the end of the 7-day expansion. Cells were stained with PE-labeled anti-human CD45RA (BD Biosciences) and APC-labeled anti-human CD34 (BD Biosciences) and analyzed using Intellicyt IQue cytometer equipped with ForeCyt software. Gates were drawn around the populations of interest to obtain cell numbers and relative proportions. The EC1.5 value, which is the concentration at which the compound/vehicle ratio is greater or equal to 1.5, was calculated by plotting the CD34+ cell number against concentrations (log-scale) in a 4-PL curve and fitting the curve using IDBS XLfit (set model 251) in Microsoft Excel.

Data set [2] concerns the target T1, AhR (Homo sapiens, UniProt P35869).
T1 construct: One of the resultant clones was named HEK-XRE 11.1, and used in the reporter gene assays; endogenous in cells; host or cells: HEK-XRE 11.1 (HEK cells stably carrying the AhR-responsive luciferase reporter X4-4.27 and phRL-CMV)
T1 sequence (P35869 11-848): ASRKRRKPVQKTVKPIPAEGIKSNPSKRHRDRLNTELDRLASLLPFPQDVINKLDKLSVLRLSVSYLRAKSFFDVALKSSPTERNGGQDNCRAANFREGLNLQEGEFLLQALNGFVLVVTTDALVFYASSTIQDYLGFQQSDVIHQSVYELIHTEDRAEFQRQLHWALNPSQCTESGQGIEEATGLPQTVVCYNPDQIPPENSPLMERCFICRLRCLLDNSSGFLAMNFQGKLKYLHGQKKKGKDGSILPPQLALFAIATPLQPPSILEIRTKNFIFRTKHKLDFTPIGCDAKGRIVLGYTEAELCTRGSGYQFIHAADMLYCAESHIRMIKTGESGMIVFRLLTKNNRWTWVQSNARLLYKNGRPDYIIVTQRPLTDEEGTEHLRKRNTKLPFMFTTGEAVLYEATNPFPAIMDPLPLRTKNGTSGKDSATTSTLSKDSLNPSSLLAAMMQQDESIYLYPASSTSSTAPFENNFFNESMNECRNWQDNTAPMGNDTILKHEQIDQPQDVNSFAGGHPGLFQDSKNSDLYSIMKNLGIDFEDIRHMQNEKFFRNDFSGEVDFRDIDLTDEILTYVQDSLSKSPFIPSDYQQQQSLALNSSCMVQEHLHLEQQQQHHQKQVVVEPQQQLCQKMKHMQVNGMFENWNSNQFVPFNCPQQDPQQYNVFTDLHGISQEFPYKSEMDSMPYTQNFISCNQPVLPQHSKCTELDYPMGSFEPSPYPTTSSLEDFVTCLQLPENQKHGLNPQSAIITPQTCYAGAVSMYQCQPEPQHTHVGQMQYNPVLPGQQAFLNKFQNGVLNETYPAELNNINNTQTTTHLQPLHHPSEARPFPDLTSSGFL
The experiment in a line: Inhibition of AhR-mediated gene transcription (HEK-XRE 11.1 luciferase reporter, MeBIO induction). The class given is cell-based. Conditions: HEK-XRE 11.1 cells, MeBIO 0.1 nM, luminescence after 24 hours; Table 1. As to the method:
HEK cells line was transfected with an AhR-responsive firefly luciferase reporter gene X4-4.27 and the stable transfectants generated were again transfected with phRL-CMV (a Renilla luciferase expression vector; Promega) along with pBAsi-hU6 Pur DNA (a plasmid carrying the puromycin-resistant gene; TaKaRa, Shiga, Japan), and maintained in the presence of both hygromycin B and puromycin (2 mg/mL). One of the resultant clones was named HEK-XRE 11.1, and used in the reporter gene assays.
HEK-XRE 11.1 cells were plated in 384-well plates at a density of 25,000 cells in 50 uL volume per well. The induction of ARh pathway was done by addition of MeBIO at 0.1 nM concentration. ARh antagonist compounds were then added to seeded cells in serial dilutions (8 dilutions, 1:[…] down to 5 nM) in duplicate wells. Renilla expression was not used as internal control. On each plate, Compound 1001 and SR1 were added as dose control (8 dilutions, 1:3, 5 mM down to 2.5 nM for SR1 and 2 mM down to 1 nM for compound 1001). Luminescence activity was evaluated after 24 hours culture using Lumi-384-CellTiterGlo-Corning protocol. Dose-response curves were generated using nonlinear regression in Excel.

pIC50: −log10 of the molar value.

Broadly, the pIC50 is the negative decadic logarithm of the IC50, by convention in mol/L.

With `Cc1cc(NC(=O)c2sc3ncc(C(F)(F)F)cc3c2N)ccc1F` [Compound 1076], the EC1.5 in data set [1] fell in the range of 100 to 1000 nM. Moreover, in data set [2], the pIC50 is 6.30 to 7.30.
For the compound `Nc1c(C(=O)Nc2cccc(F)c2)sc2ncc(C(F)(F)F)cc12` [Compound 1077], the EC1.5 in data set [1] was 100 to 1000 nM. Besides, in data set [2], the pIC50 was above 7.30.
With `Cc1ccc(NC(=O)c2sc3ncc(C(F)(F)F)cc3c2N)cc1F` [Compound 1078], in data set [1], the EC1.5 fell in the range of 1000 to 5000 nM. In addition, in data set [2], the pIC50 was 6.30 to 7.30.
`Nc1c(C(=O)Nc2cc(F)cc(F)c2)sc2ncc(C(F)(F)F)cc12` [Compound 1079]: the EC1.5 in data set [1] fell in the range of 1000 to 5000 nM. The compound also gave a pIC50 in data set [2] of 6.30 to 7.30.
Take `COc1cccc(NC(=O)c2sc3cnc(C(F)(F)F)cc3c2N)c1` [Compound 1080]: the EC1.5 in data set [1] lay in the range of 100 to 1000 nM. In data set [2], this compound had a pIC50 above 7.30.
Turning to `COc1cccc(NC(=O)c2sc3nc4c(cc3c2N)CCC4)c1` [Compound 1081], the EC1.5 in data set [1] was below 100 nM. For the same compound, the negative logarithm of the IC50 (pIC50) in data set [2] is above 7.30.
With `Nc1c(C(=O)Nc2ccc(Cl)cc2)sc2nc3c(cc12)CCC3` [Compound 1082], the EC1.5 in data set [1] is given as below 100 nM. For the same compound, the negative logarithm of the IC50 (pIC50) in data set [2] is above 7.30.
On the same counts, the results for `COc1ccc(NC(=O)c2sc3ccc(C(F)(F)F)cc3c2N)cc1` [Compound 1083] are below 100 nM and 6.30 to 7.30.
On the same counts, the results for `Nc1c(C(=O)Nc2ccc(OC(F)(F)F)cc2)sc2ncc(C(F)(F)F)cc12` [Compound 1084] are below 100 nM and above 7.30.
For `COc1cccc(NC(=O)c2sc3ncc(C(F)(F)F)cc3c2N)c1` [Compound 1085], in that order: 100 to 1000 nM and 6.30 to 7.30.
As to `Nc1c(C(=O)Nc2ccc(OC(F)F)cc2)sc2ncc(C(F)(F)F)cc12` [Compound 1086], in data set [1], the EC1.5 lay within 100 to 1000 nM. The pIC50 in data set [2] was above 7.30.
As to `COc1ccc(NC(=O)c2sc3ncc(C(F)(F)F)cc3c2N)cc1Cl` [Compound 1087], the EC1.5 in data set [1] was below 100 nM. Moreover, in data set [2], the pIC50 was above 7.30.
In the case of `Nc1c(C(=O)Nc2ccc(F)cc2)sc2cnc(C(F)(F)F)cc12` [Compound 1088], the EC1.5 in data set [1] is listed as above 5000 nM. For the same compound, the pIC50 in data set [2] was above 7.30.
As for `Nc1c(C(=O)Nc2ccc(F)cc2)sc2ccc(C(F)(F)F)cc12` [Compound 1089], the EC1.5 in data set [1] was 100 to 1000 nM. Besides, the negative logarithm of the IC50 (pIC50) in data set [2] is above 7.30.
Consider `Nc1c(C(=O)Nc2ccccc2)sc2ncc(C3CC3)cc12` [Compound 1091], for which, in data set [1], the EC1.5 lay within 100 to 1000 nM. In data set [2], the pIC50 was 6.30 to 7.30.
Consider `Nc1c(C(=O)Nc2ccc(Oc3ccccc3)cc2)sc2ncc(C(F)(F)F)cc12` [Compound 1092], for which the EC1.5 in data set [1] was 100 to 1000 nM. The pIC50 in data set [2] is 6.30 to 7.30.
Consider `Nc1c(C(=O)Nc2cccc(Cl)c2)sc2ncc(C(F)(F)F)cc12` [Compound 1093], for which the EC1.5 in data set [1] is given as below 100 nM. The pIC50 in data set [2] is above 7.30.
On to `Cc1cccc(NC(=O)c2sc3ncc(C(F)(F)F)cc3c2N)c1` [Compound 1094], for which, in data set [1], the EC1.5 is below 100 nM. In data set [2], the negative logarithm of the IC50 (pIC50) was above 7.30.
For `Nc1c(C(=O)Nc2ccc(Cl)c(Cl)c2)sc2ncc(C(F)(F)F)cc12` [Compound 1095], in data set [1], the EC1.5 was 100 to 1000 nM. This compound had a pIC50 in data set [2] of 6.30 to 7.30.
Take `Cc1cc(NC(=O)c2sc3ncc(C(F)(F)F)cc3c2N)ccc1Cl` [Compound 1096]: the EC1.5 in data set [1] was 1000 to 5000 nM. In addition, the pIC50 in data set [2] is 6.30 to 7.30.
Take `Nc1c(C(=O)Nc2ccc(Cl)c(O)c2)sc2ncc(C(F)(F)F)cc12` [Compound 1097]: the EC1.5 in data set [1] was in the range of 1000 to 5000 nM. Also, the pIC50 in data set [2] was below 6.30.
Regarding `Nc1c(C(=O)Nc2ccc3c(c2)OCO3)sc2ncc(C(F)(F)F)cc12` [Compound 1098], the EC1.5 in data set [1] was below 100 nM. This compound also gave a pIC50 in data set [2] of 6.30 to 7.30.
For `Nc1c(C(=O)Nc2ccc3c(c2)OCCO3)sc2ncc(C(F)(F)F)cc12` [Compound 1099], in data set [1], the EC1.5 was below 100 nM. In data set [2], the pIC50 was 6.30 to 7.30.
For `Nc1c(C(=O)Nc2ccsc2)sc2ncc(C(F)(F)F)cc12` [Compound 1100], in that order: below 100 nM and above 7.30.
For `Cc1nc2cc(NC(=O)c3sc4ncc(C(F)(F)F)cc4c3N)ccc2s1` [Compound 1101], in that order: 100 to 1000 nM and above 7.30.
As to `Nc1c(C(=O)Nc2ccncn2)sc2ncc(C(F)(F)F)cc12` [Compound 1102], in data set [1], the EC1.5 was above 5000 nM. This compound gave a pIC50 in data set [2] of 6.30 to 7.30.
In the case of `Nc1c(C(=O)Nc2ccccc2)sc2nc3c(cc12)CCCC3` [Compound 1104], the EC1.5 in data set [1] fell in the range of 100 to 1000 nM. The same compound showed a pIC50 in data set [2] of 6.30 to 7.30.
For `COc1ccc(NC(=O)c2sc3nc4c(cc3c2N)CCCC4)cc1` [Compound 1105], in data set [1], the EC1.5 was above 5000 nM. Also, the negative-log IC50 (pIC50) in data set [2] is 6.30 to 7.30.
Take `Nc1c(C(=O)Nc2ccc(F)cc2)sc2nc3c(cc12)CCCC3` [Compound 1106]: in data set [1], the EC1.5 lay within 1000 to 5000 nM. In data set [2], the pIC50 is 6.30 to 7.30.
With `Nc1c(C(=O)Nc2ncccn2)sc2ncc(C(F)(F)F)cc12` [Compound 1107], the EC1.5 in data set [1] lay within 1000 to 5000 nM. In addition, the pIC50 in data set [2] is above 7.30.
For the compound `Nc1c(C(=O)Nc2cncnc2)sc2ncc(C(F)(F)F)cc12` [Compound 1109], the EC1.5 in data set [1] was above 5000 nM. In data set [2], the pIC50 is below 6.30.
For `Nc1c(C(=O)Nc2ccc3[nH]ncc3c2)sc2ncc(C(F)(F)F)cc12` [Compound 1110], in that order: above 5000 nM and 6.30 to 7.30.
For the compound `Nc1c(C(=O)Nc2ccccc2)sc2nc3c(cc12)CCCCC3` [Compound 1113], the EC1.5 in data set [1] fell in the range of 1000 to 5000 nM. Besides, the negative logarithm of the IC50 (pIC50) in data set [2] was 6.30 to 7.30.
On the same counts, the results for `Cc1cnc2sc(C(=O)Nc3ccc(F)cc3)c(N)c2c1` [Compound 1115] are below 100 nM and above 7.30.
As for `COc1ccc(NC(=O)c2sc3ccc(C(F)(F)F)nc3c2N)cc1` [Compound 1116], the EC1.5 in data set [1] lay in the range of 100 to 1000 nM. Also, the negative-log IC50 (pIC50) in data set [2] was 6.30 to 7.30.
On the same counts, the results for `Nc1c(C(=O)Nc2ccc(F)cc2)sc2ccc(C(F)(F)F)nc12` [Compound 1117] are 100 to 1000 nM and above 7.30.
For `COc1ccc(NC(=O)c2sc3ccc(C)cc3c2N)cc1` [Compound 1119], in that order: 100 to 1000 nM and 6.30 to 7.30.
